# What was measured:
# [1] = biological target: T1, Aldose reductase (AR) (Homo sapiens, UniProt P15121); experiment: AR (aldose reductase) inhibitory activity, NADPH/methylglyoxal, absorbance at 340 nm; assay type: biochemical
# T1 construct: purchased Wako Pure Chemical Industries 012-13991
# Protocol: 2,5-dihydroxytetrahydro-2-furancarboxylic acid was added to an AR reaction system to determine the AR inhibitory activity.
# NADPH (Nacalai Tesque) as a hydrogen donor and methylglyoxal (Nacalai Tesque) as a substrate for the enzyme were used. A commercially available enzyme solution (Wako Pure Chemical Industries, code 012-13991) was diluted. for use as AR.
# The AR activity was measured as follows.
# 40 μl of sterile pure water, 20 μl of 1 mM aqueous NADPH solution and 10 μl of enzyme dilution were added to 100 μl of 200 mM phosphate buffer (pH 6.2). 10 μl of sterile pure water was further added to the mixture. After 20 μl of 100 mM aqueous methylglyoxal solution was added thereto, the change in absorbance at 340 nm was monitored at room temperature for 3 minutes. The enzymatic activity was determined on the basis of the change in absorbance per minute. Next, aqueous solution of 2,5-dihydroxytetrahydro-2-furancarboxylic acid at a varying concentration was added to the reaction system as described above in place of 10 μl of sterile pure water. The enzymatic activity was then determined as described above.
# The AR inhibitory activity of 2,5-dihydroxytetrahydro-2-furancarboxylic acid was determined based on the enzymatic activity inhibition rate calculated according to the following equation:
# Enzymatic activity inhibition rate (%)={1-(enzymatic activity with the addition of aqueous 2,5-dihydroxytetrahydro-2-furancarboxylic acid solution)/(enzymatic activity with the addition of water)}×100.
# [2] = system: alcohol dehydrogenase (ADH); experiment: ADH inhibitory activity, NAD/ethanol, absorbance at 340 nm; assay type: biochemical; settings: final concentration 10.8 μg/ml (IC50 for AR activity)
# Protocol: Next, 2,5-dihydroxytetrahydro-2-furancarboxylic acid was added to an ADH reaction system to determine the ADH inhibitory activity.
# A commercially available lyophilized product (Nacalai Tesque, code 012-83) was dissolved in water for use as ADH. NAD (Nacalai Tesque) as a hydrogen donor and ethanol (Nacalai Tesque) as a substrate for the enzyme were used.
# The ADH activity was measured as follows.
# 50 μl of water, 20 μl of 3 mM aqueous NAD solution and 10 μl of enzyme solution were added to 100 μl of 200 mM phosphate buffer (pH 6.2). 10 μl of sterile pure water was further added to the mixture. After 10 μl of 60% ethanol was added thereto, the change in absorbance at 340 nm was monitored at room temperature for 3 minutes. The enzymatic activity was determined on the basis of the change in absorbance per minute.
# Next, aqueous solution of 2,5-dihydroxytetrahydro-2-furancarboxylic acid at a final concentration of 10.8 μg/ml and sterile pure water were added to the reaction system as described above in place of 10 μl of sterile pure water. The enzymatic activity was then determined as described above. The ADH enzymatic activity inhibition rate was calculated according to the above-mentioned equation based on the enzymatic activity.
compound,measurement,setting,value
"O=C(O)C1(O)CCC(O)O1 (stereo not drawn) [2,5-dihydroxytetrahydro-2-furancarboxylic acid]",IC50,"[1]; calculated from concentration and AR activity inhibition rate of Table 1, read-out: concentration in the enzymatic reaction mixture that results in the activity inhibition rate of 50% (IC50), AR (converted)",~72.9 µM
same,Activity inhibition rate (AR),[1]; concentration in enzymatic reaction system 0.5 μg/ml,8.1%
same,Activity inhibition rate (AR),[1]; concentration in enzymatic reaction system 5 μg/ml,34.8%
same,Activity inhibition rate (AR),[1]; concentration in enzymatic reaction system 50 μg/ml,81.6%
same,Activity inhibition rate (AR),[1]; concentration in enzymatic reaction system 500 μg/ml,96.3%
same,ADH activity inhibition rate,[2],7.1%
